Results on 26 compounds are retold here after patent publication US20260285870A1, “TRIAZOLOPYRIDAZINE DERIVATIVE, PREPARATION METHOD THEREFOR, PHARMACEUTICAL COMPOSITION THEREOF, AND USE THEREOF” (SHANGHAI SIMR BIOTECHNOLOGY CO., LTD., priority 2019, published 2026).

What is called microsomal CLint is the capacity of the preparation to metabolise the compound, expressed as a volume cleared per time. Broadly, the Cmax is the highest concentration seen after dosing.

The structures appear in SMILES notation.

The nature of data set [1]: Rat liver microsome stability (RLM) experiment. The format is in vitro ADME. Particulars: rat liver microsomes 0.5 mg protein/mL, NADPH, 37° C., 0-45 min; for microsomal CLint: pH 7.4. Here is the method:
Rat liver microsomes (Xenotech, item No. R1000, lot No. 1310030), 100 mM potassium phosphate buffer solution (pH 7.4), 10 mM magnesium chloride.
Compound preparation: 5 μL of compound DMSO mother liquor (10 mM) was added to 495 μL of methanol to obtain an intermediate solution with a compound concentration of 100 μM. Then 50 μL of the intermediate solution was taken and dissolved in 450 μL of potassium phosphate buffer solution to obtain a test solution with a final concentration of 10 μM.
NADPH regeneration system (concentration of isocitrate dehydrogenase 1 unit/mL).
Liver microsomes (final concentration 0.5 mg protein/mL).
Reaction termination solution: cold acetonitrile containing 100 ng/mL Tolbutamide and 100 ng/mL Labetalol as an internal standard.
• (1) Preparation of Buffer Solution: • Buffer solution A: 1.0 L of 0.1 M potassium phosphate buffer solution containing 1.0 mM EDTA • Buffer solution B: 1.0 L of 0.1 M dipotassium phosphate buffer solution containing 1.0 mM EDTA • Buffer solution C: 0.1 M potassium phosphate buffer, 1.0 mM EDTA, pH 7.4, titrated with 700 mL of buffer solution B and buffer solution A, monitored by pH meter. • (2) Preparation of Reference Substance (Ketanserin) and Concentration of Administration Solution of the Test Substance
5000 administration solution: […] 10 mM DMSO reference substance stock solution and test substance stock solution were added to 190 μL of ACN, respectively. 1.5 μM administration solution (containing 0.75 mg/mL liver microsomes): […] administration solution and 18.75 μL of 20 mg/mL liver microsomes were added to 479.75 μL of buffer C on a wet ice. • (3) NADPH was added to buffer solution C to obtain a NADPH stock solution (6 mM). • (4) 30 μL of 1.5 μM administration solution (containing 0.75 mg/mL of liver microsomes) was taken on the wet ice and added to the wells of the test plate at different time points (0-, 5-, 15-, 30-, 45-min), respectively. • (5) Firstly, 135 μL of ACN containing IS was added to the wells of a 0 min test plate, and then 15 µL of the NADPH stock solution (6 mM) was added. • (6) The test plate at other time points and the NADPH stock solution were pre-heated in a 37° C. water bath for 5 minutes. • (7) 15 μL of the NADPH stock solution (6 mM) was taken and added to a pre-incubated test plate, and the reaction was started and timed. • (8) At 5 min, 15 min, 30 min and 45 min, 135 µL of CAN containing IS was added to the corresponding test plate respectively, and the test was completed. • (9) Test plates were shaken with a shaker (IKA, MTS 2/4) for 10 min (600 rpm/min) and then centrifuged for 15 min (Thermo Multifuge×3R, 5594 g). • (10) 50 μL of supernatant from each well was added to a 96-well sample plate containing 50 μL of ultrapure water (Millipore, ZMQS50F01), and the samples were analyzed by LC/MS.
A general note: Liver microsomes are a subcellular fraction often used to study metabolism.

Data set [2] concerns α5-GABAA receptor. As to conditions: animal models; cited from earlier work.
Data set [3] is described as follows: Pharmacokinetic experiment on rats: brain entry ratio (brain tissue/plasma concentration ratio). The format is in vivo. As to conditions: male SD rats, po, 10 mg/kg, 0.5 hours. As to the method:
The drug concentration ratio of plasma and brain tissue in the pharmacokinetic experiment on rats was used to evaluate the entry of compounds into brain. All rats fasted overnight before administration; the test compounds were dissolved and administered orally (po) to male SD rats, with 3 rats in each group. After administration of the test compounds, blood was collected by jugular vein puncture at 0.5 hours with about 0.25 mL per sample. The whole brain was taken at the same time. The plasma and brain tissue drug concentration were determined by LC-MS/MS method, and the pharmacokinetic parameters were calculated by Phoenix WinNonlin7.0. The dosage was 10 mg/kg, and the vehicle was 5% CMC-Na aqueous solution.

Data set [4] in a line: Pharmacokinetic experiment on rats: maximum plasma drug concentration (Cmax). As to conditions: rat, male SD rats, po, 10 mg/kg, 5% CMC-Na aqueous solution. The format is in vivo. As to the method:
In the pharmacokinetic experiment on rats, the maximum plasma drug concentration (Cmax) was used to evaluate the absorption of the compounds in rats. All rats fasted overnight before administration; the test compounds were dissolved and administered orally (po) to male SD rats, with 3 rats in each group. After administration of the test compounds, blood was collected by jugular vein puncture at […] with about 0.25 mL per sample. The plasma drug concentration was determined by LC-MS/MS method, and the pharmacokinetic parameters were calculated by Phoenix WinNonlin7.0. The dosage was 10 mg/kg, and the vehicle was 5% CMC-Na aqueous solution.

A short description of data set [5]: Water solubility observed during work-up. Particulars: observation at extraction, pH=7. The data set is classed as physicochemical. Here is the method: Methyl 6-[7-methoxy-3-(5-methyl-isoxazol-3-yl)-[1,2,4]triazolo[4,3-b]pyridazin-6-yloxymethyl]-nicotinate (300 mg, 0.75 mmol), 1 M lithium hydroxide (1.5 mL, 1.5 mmol) were sequentially added to 10 mL of ethanol, and the mixture was stirred at room temperature for 1 hour. The mixture was added with 0.5 M hydrochloric acid to neutralize to pH=7, diluted with water, extracted with ethyl acetate. […] LC-MS: m/z [M+H]^+=383.

Data set [6] has as its system α5-GABAA receptor. Set-up: suppression of the current induced by GABA: dose or concentration left out as unconfirmed. As to conditions: cited from earlier work.

Regarding `COc1cc2nnc(-c3cc(C)on3)n2nc1OCc1ccc(OC2CCOC2)nn1` (stereo not shown) [Embodiment 154], the intrinsic metabolic clearance (microsomal CLint) in data set [1] was 1 µL/min/mg.
In turn, `COc1cc2nnc(-c3cc(C)on3)n2nc1OCc1ccc(C2(F)CN(C3COC3)C2)cn1` [Embodiment 128] gave a microsomal CLint in data set [1] of 6 µL/min/mg.
`Cc1cc(-c2nncc3c(C(C)(C)C)c(OCc4ncnn4C)nn23)no1` [MRK-016]: the “therapeutic effects on cognition related diseases” value in the data set on α5-GABAA receptor [2] is on record as “good therapeutic effects”.
As to `COc1cc2nnc(-c3cc(C)on3)n2nc1OCc1ccc2c(n1)CCN(C1CCOCC1)C2` [Embodiment 186], the microsomal CLint in data set [1] turned out to be 22 µL/min/mg.
Consider `COc1cc2nnc(-c3cc(C)on3)n2nc1OCc1ccc2c(n1)CCN(C1CCOC1)C2` (stereo not shown) [Embodiment 183], for which the intrinsic clearance (microsomal CLint) in data set [1] turned out to be 5 µL/min/mg.
For the compound `COc1cc2nnc(-c3cc(C)on3)n2nc1OCc1ccc2c(n1)CCN(C(CO)CO)C2` [Embodiment 185], the microsomal CLint in data set [1] was 9 µL/min/mg. Further, the Brain entry ratio in data set [3] is 0%.
`COc1cc2nnc(-c3cc(C)on3)n2nc1OCc1ccc2c(n1)CN(C)C2` [Embodiment 160] displayed an intrinsic clearance (microsomal CLint) in data set [1] of 6 µL/min/mg.
Turning to `Cc1cc(-c2nnc3cc(C(C)(C)C)c(OCc4ccccn4)nn23)no1` [drawing 930], in data set [4], the peak concentration (Cmax) was determined as 216 ng/mL.
For the compound `COc1cc2nnc(-c3cc(C)on3)n2nc1OCc1ccc(C(=O)O)cn1` [Embodiment 63], the water solubility entry in data set [5] is given as “good water solubility”.
Consider `CCOC(=O)c1ncn2c1[C@@H]1CCCN1C(=O)c1cc(OC)ccc1-2` [L-655,708], for which, in the data set on α5-GABAA receptor [6] (GABA concentration increased further), the “inhibitory effect on the current induced by GABA” value is “no inhibitory effect”. Besides, in the data set with α5-GABAA receptor [6] (highest concentration of L-655,708), the “suppression of the current induced by GABA” value is recorded as 15%. Moreover, the “inhibition of the current induced by GABA” value in the data set on α5-GABAA receptor [6] (low concentrations of GABA (5, 50 and 500 nM)) is “dose-dependently inhibited”.
For `Cc1cc(-c2nnc3c4ccccc4c(OCc4cn(C)nn4)nn23)no1` [α5IA], the “therapeutic effects on cognition related diseases” value in the data set on α5-GABAA receptor [2] was “good therapeutic effects”.
`COCCOCc1ccc(COc2nn3c(-c4cc(C)on4)nnc3cc2OC)nn1` [Embodiment 166] came in with an RLM in data set [1] of 0 µL/min/mg.
`COc1cc2nnc(-c3cc(C)on3)n2nc1OCc1ccc2c(n1)CCN(C1COC1)C2` [Embodiment 84] displayed an RLM in data set [1] of 0 µL/min/mg.
In turn, `Cc1cc(-c2nnc3c4ccccc4c(OCc4ccccn4)nn23)no1` [α51A-II, reference compound] showed an intrinsic clearance (microsomal CLint) in data set [1] of 28.2 µL/min/mg. Besides, the peak level in data set [4] (Cmax) was 25.7 ng/mL.
`CCNC(=O)c1ccc(COc2nn3c(-c4cc(C)on4)nnc3cc2C(C)(C)C)nc1` [Compound 42 in CN107344936A, reference compound] had a microsomal CLint in data set [1] of 143 µL/min/mg.
Turning to `COc1cc2nnc(-c3cc(C)on3)n2nc1OCc1ccc(OC2CCOCC2)nn1` [Embodiment 152], the microsomal CLint in data set [1] was 23 µL/min/mg.
In the case of `COc1cc2nnc(-c3cc(C)on3)n2nc1OCc1ccccn1` [Embodiment 33], the microsomal CLint in data set [1] was determined as 0.3 µL/min/mg. Moreover, in data set [4], the concentration peaked (Cmax) at 1780 ng/mL.
As for `COc1cc2nnc(-c3cc(C)on3)n2nc1OCc1ccc(OC2COC2)nn1` [Embodiment 153], in data set [1], the intrinsic metabolic clearance (microsomal CLint) was found to be 5 µL/min/mg.
`COc1cc2nnc(-c3cc(C)on3)n2nc1OCc1ccc2nc(C#N)cn2n1` [Embodiment 211]: the microsomal CLint in data set [1] came to 5 µL/min/mg.
`COc1cc2nnc(-c3cc(C)on3)n2nc1OCc1ccc2c(n1)CN(C1CCOCC1)C2` [Embodiment 253] came in with a microsomal CLint in data set [1] of 10 µL/min/mg.
In turn, `COc1cc2nnc(-c3cc(C)on3)n2nc1OCc1ccc2c(n1)CCN(Cc1cc(C)on1)C2` [Embodiment 187] displayed a microsomal CLint in data set [1] of 15 µL/min/mg.
The same measure, in the same setting: the figure for `COCc1cn2nc(COc3nn4c(-c5cc(C)on5)nnc4cc3OC)ccc2n1` [Embodiment 213] is 10 µL/min/mg.
Compound `CCNC(=O)c1ccc(COc2nn3c(-c4cc(C)on4)nnc3cc2OC)nc1` [Embodiment 35] returned a microsomal CLint in data set [1] of 11.4 µL/min/mg.
Compound `Cc1cc(-c2nnc3cc(C(C)(C)C)c(OCc4ccccn4)nn23)no1` [drawing 926, reference compound] displayed a microsomal CLint in data set [1] of 33.6 µL/min/mg.
`COCCCOc1ccc(COc2nn3c(-c4noc(C)n4)nnc3cc2OC)nn1` [Embodiment 129] showed an intrinsic clearance (microsomal CLint) in data set [1] of 14 µL/min/mg.
`COCc1ccc(COc2nn3c(-c4cc(C)on4)nnc3cc2OC)nn1` [Embodiment 151] yielded an intrinsic clearance (microsomal CLint) in data set [1] of 1 µL/min/mg.
